Data set [1] relates to delayed hypersensitivity reaction (adjuvant arthritis, Mycobacterium butyricum). Kind of data set: adjuvant arthritis test in rats. The conditions noted are these: for significant potentiating effect in the adjuvant arthritis test / change in vivo at 40 mg/kg: 40 mg/kg p.o.; for change in vivo at 10 mg/kg: 10 mg/kg p.o. The format is in vivo, rat (male Lister hooded). An excerpt:
The adjuvant arthritis test in rats produces a measureable extent of a delayed hypersensitivity reaction and can be used for a determination of variations in the extent of the delayed hypersensitivity reaction upon drug administration to the host. An increase in the extent of the delayed hypersensitivity reaction upon drug administration consequently indicates enhanced cell-mediated immunity in the host.
This example illustrates the effect of the compounds of the general formula I in the adjuvant arthritis test in rats.
The adjuvant arthritis test in rats produces a delayed hypersensitivity reaction and can be used for a determination of variations of the delayed hypersensitivity reaction upon drug administration to the host. An increase in the extent of the delayed hypersensitivity reaction upon drug administration consequently indicates enhanced cell-mediated immunity in the host.
A modification of a method described in (12) was used. Male Lister hooded rats weighing 250-275 g were used. At least 9 animals were used in each experimental group.
A single intradermal injection of 0.5 mg/0.1 ml heat killed Mycobacterium butyricum suspended in sterile liquid paraffinum was given into the right hind foot of all rats. After this injection, day 0, the volume of the left hind paw, measured by water displacement, was followed to the end of the experiment.
The substances suspended in aqueous methocel solution 10 ml/kg were given intragastrically. The control group was given methocel solution 10 ml/kg. The different groups of animals were thus treated once daily from day -4 to day 14. The effect of the substances was assessed by the left foot volume expressed in percent after comparison with the control groups.

Data set [2] has as its system carrageenan-induced edema. Kind of data set: carrageenan edema test in rats. The class given is in vivo, rat (female Sprague-Dawley). The conditions noted are these: for change in vivo at 80 mg/kg: Rattus norvegicus, po, 80 mg/kg p.o., 30 min before carrageenan, edema weight 3 h after, vs control, preliminary, read-out: Potentiation of the carrageenan edema, %; for significant potentiation of the carrageenan edema: dose within the range 10-160 mg/kg p.o. Put shortly:
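Female Sprague-Dawley rats (110-120 g, ≥10 per group) received compound intragastrically in aqueous methocel 30 min before plantar carrageenan injection into the right hind paw. At 3 h, right minus left paw weight gave edema weight, expressed as percent of methocel controls.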
Background: The carrageenan paw model is a standard test of acute inflammation.

The subject of data set [3] is delayed hypersensitivity reaction (pertussis vaccine pleurisy). Briefly: pertussis vaccine pleurisy test in rats. The class given is in vivo, rat (male Sprague-Dawley). The conditions noted are these: 10 mg/kg p.o.; for change in vivo at 10 mg/kg: Rattus norvegicus, po, 48 h, once daily day 10 to day 13, vs control, preliminary, read-out: Enhancement of the delayed hypersensitivity reaction assessed by the exudate vol. Put shortly: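 Male Sprague-Dawley rats (250-275 g, ≥10/group) sensitized day 0 with heat-killed B. pertussis in Freund's incomplete adjuvant into hind and forepaw, challenged intrapleurally day 12. Compounds in aqueous methocel given intragastrically once daily days 10-13. Pleural exudate volume measured day 14, expressed as percent of methocel control.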

The test system of data set [4] is mice. Particulars: mice p.o.; reference 13; cited from earlier work.
The mark [5] stands for this setting: Rattus norvegicus, po, 336 h, once daily day -4 to day 14, vs control, preliminary, read-out: Increase of the volume of the left foot.

Take `CN(C(=O)c1c(O)c2ccccc2n(C)c1=O)c1ccccc1` [1:43, N-phenyl-N-methyl-1,2-dihydro-4-hydroxy-1-methyl-2-oxo-quinoline-3-carboxamide]: the “significant potentiating effect in the adjuvant arthritis test” value in data set [1] was “significant potentiating effect”. The results for the change in vivo at 10 mg/kg in data set [1] (setting [5]) and in data set [3] were 48% and 70%, respectively. For the same molecule, the change in vivo at 80 mg/kg in data set [2] turned out to be 84%.

Turning to `O=C(Nc1ccccc1)c1c(O)c2cccc3c2n(c1=O)CC3` [2:2, N-phenyl-1,2-dihydro-1,8-ethylene-4-hydroxy-2-oxo-quinoline-3-carboxamide], the change in vivo at 40 mg/kg in data set [1] (setting [5]) was determined as 40%. For the same molecule, the change in vivo at 80 mg/kg in data set [2] came to 43%. In data set [3], the change in vivo at 10 mg/kg worked out at 64%.

For the molecule `O=C(Nc1ccccc1)c1c(O)c2cccc3c2n(c1=O)CCC3` [2:3, N-phenyl-1,2-dihydro-4-hydroxy-2-oxo-1,8-trimethylene-quinoline-3-carboxamide], in data set [1] (setting [5]), the change in vivo at 40 mg/kg came out at 39%. For the same molecule, the change in vivo at 80 mg/kg in data set [2] stood at 61%. The change in vivo at 10 mg/kg in data set [3] is 66%.

`COc1c(C(=O)Nc2ccccc2)c(=O)n(C)c2ccccc12` [6:1, N-phenyl-1,2-dihydro-4-methoxy-1-methyl-2-oxo-quinoline-3-carboxamide]: in data set [1] (setting [5]), the change in vivo at 40 mg/kg came out at 34%. Further, the change in vivo at 80 mg/kg in data set [2] turned out to be 60%. Further, the change in vivo at 10 mg/kg in data set [3] is 91%.

Turning to `Cn1c(=O)c(C(=O)Nc2nccs2)c(O)c2ccccc21` [7:1, N-(2-thiazolyl)-1,2-dihydro-4-hydroxy-1-methyl-2-oxo-quinoline-3-carboxamide], the change in vivo at 20 mg/kg in data set [1] (Rattus norvegicus, po, 336 h, 20 mg/kg p.o., once daily day -4 to day 14, vs control, preliminary, read-out: Increase of the volume of the left foot) is 44%. For the same molecule, in data set [1] (setting [5]), the change in vivo at 40 mg/kg stood at 35%. Besides, in data set [2], the change in vivo at 80 mg/kg amounted to 84%. Further, the change in vivo at 10 mg/kg in data set [3] turned out to be 81%.

Regarding `Cn1c(=O)c(C(=O)Nc2cnccn2)c(O)c2ccccc21` [7:4, N-pyrazinyl-1,2-dihydro-4-hydroxy-1-methyl-2-oxo-quinoline-3-carboxamide], the change in vivo at 40 mg/kg in data set [1] (setting [5]) turned out to be 29%. Moreover, the change in vivo at 80 mg/kg in data set [2] was determined as 34%. Further, in data set [3], the change in vivo at 10 mg/kg was found to be 27%.

For `CN(C)c1ccc(NC(=O)c2c(O)c3cc(N(C)C)cc4c3n(c2=O)CCC4)cc1` [13:3, N-(4-dimethylaminophenyl)-1,2-dihydro-6-dimethylamino-4-hydroxy-2-oxo-1.8-trimethylene-quinoline-3-carboxamide], the “significant potentiating effect in the adjuvant arthritis test” value in data set [1] was “significant potentiating effect”. For the same molecule, the “significant potentiation of the carrageenan edema” value (“significant potentiation” below) in data set [2] was “potentiate significantly”. The “significant enhancing effect in the pertussis vaccine pleurisy test” value in data set [3] is “significant enhancing effect”.

As to `CCN(C(=O)c1c(O)c2ccccc2n(C)c1=O)c1ccccc1` [21:5, N-ethyl-N-phenyl-1,2-dihydro-4-hydroxy-1-methyl-2-oxo-quinoline-3-carboxamide], the “significant potentiating effect in the adjuvant arthritis test” value in data set [1] is listed as “significant potentiating effect”. For the same molecule, in data set [2], the “significant potentiation” value was “potentiate significantly”. The change in vivo at 10 mg/kg in data set [3] was found to be 29%.

Regarding `COc1ccc(N(C)C(=O)c2c(O)c3ccccc3n(C)c2=O)cc1` [21:6, N-(4-methoxyphenyl)-N-methyl-1,2-dihydro-4-hydroxy-1-methyl-2-oxo-quinoline-3-carboxamide], the results for the change in vivo at 10 mg/kg in data set [1] (setting [5]) and in data set [3] were 41% and 90%, respectively. Also, the change in vivo at 80 mg/kg in data set [2] stood at 38%.

For `CN(C(=O)c1c(O)c2ccccc2n(C)c1=O)c1ccccn1` [21:7, N-methyl-N-(2-pyridyl)-1,2-dihydro-4-hydroxy-1-methyl-2-oxo-quinoline-3-carboxamide], in data set [1], the “significant potentiating effect in the adjuvant arthritis test” value is “significant potentiating effect”. Moreover, in data set [2], the “significant potentiation” value is recorded as “potentiate significantly”. Moreover, the change in vivo at 10 mg/kg in data set [3] stood at 21%.

Take `CN(C(=O)c1c(O)c2ccccc2n(C)c1=O)c1ccc(Cl)cc1` [21:9, N-(4-chlorophenyl)-N-methyl-1,2-dihydro-4-hydroxy-1-methyl-2-oxo-quinoline-3-carboxamide]: the figures for the change in vivo at 10 mg/kg in data set [1] (setting [5]) and in data set [3] were 51% and 84%, respectively. Also, in data set [2], the change in vivo at 80 mg/kg was determined as 52%.

As to `COc1ccc(N(C)C(=O)c2c(O)c3cc(OC)ccc3n(C)c2=O)cc1` [21:14, N-(4-methoxyphenyl)-N-methyl-1,2-dihydro-4-hydroxy-6-methoxy-1-methyl-2-oxo-quinoline-3-carboxamide], the “significant potentiating effect in the adjuvant arthritis test” value in data set [1] is recorded as “significant potentiating effect”. For the same molecule, the “significant potentiation” value in data set [2] is “potentiate significantly”. Moreover, the “significant enhancing effect in the pertussis vaccine pleurisy test” value in data set [3] was “significant enhancing effect”.

Turning to `CN(C(=O)c1c(O)c2ccccc2n(C)c1=O)c1ccc(F)cc1` [21:35, N-(4-fluorophenyl)-N-methyl-1,2-dihydro-4-hydroxy-1-methyl-2-oxo-quinoline-3-carboxamide], the “significant potentiating effect in the adjuvant arthritis test” value in data set [1] is “significant potentiating effect”. Moreover, the “significant potentiation” value in data set [2] was “potentiate significantly”. Further, the “significant enhancing effect in the pertussis vaccine pleurisy test” value in data set [3] was “significant enhancing effect”.

With `c1ccc([C@H]2CN3CCSC3=N2)cc1` [Levamisole, levamisole, reference compound], the change in vivo at 5 mg/kg in data set [1] (Rattus norvegicus, po, 336 h, 5 mg/kg p.o., once daily day -4 to day 14, vs control, preliminary, read-out: Increase of the volume of the left foot) turned out to be 4%. In addition, the values for the change in vivo at 10 mg/kg in data set [1] (setting [5]) and in data set [3] were 12% and 13%, respectively. Also, the “acute LD50” value in data set [4] is listed as 285 mg/kg.

Source of the values: US4738971A, “N-aryl-1,2-dihydro-4-substituted-1-alkyl-2-oxo-quinoline-3-carboxamides” (priority 1981, dated 1988).
